Data on 2 molecules can be found in patent US8410278B2, “Method for preparing a non-hydratable crystal form” (E I du Pont de Nemours and Company, priority 2008, dated 2013).

Series [1] in a line: Water uptake/loss on exposure to variations in atmospheric humidity. The series is classed as physicochemical. The source says:
(§1) A method has now been discovered for the preparation of a non-hydratable polymorph of Compound 1 (Polymorph A) from a hydratable polymorph of Compound 1 (Polymorph B) that typically is initially formed by procedures for preparing Compound 1. […] This surprising stability facilitates a more consistent assay of Compound 1. These characteristics also make Polymorph A of Compound 1 well suited for the production of long-lasting stable solid formulations, enabling specifying a stable active ingredient content.

Series [2] in a line: Crystal form stability during long-term storage. The series is classed as physicochemical.
Description: as §1

The format of series [3] is physicochemical. An excerpt:
Remarkably water is now discovered to work very well as a solvent in the heated liquid phase for converting Polymorph B to Polymorph A. This is particularly unexpected, because Polymorph B, which can accommodate significant amounts of water in its crystal lattice, can be anticipated to be favored over anhydrous Polymorph A in an aqueous medium. Nevertheless, water is now found to be particularly suitable in forming the liquid phase for conversion of Polymorph B to Polymorph A. Conversion proceeds to near 100% completion and in high yields within commercially convenient time periods at temperatures not exceeding about 100° C. (i.e. the normal boiling point of water). […] Alternatively if Polymorph A is in high concentration in water, Polymorph A can be isolated by evaporation of the water.

Each structure is given as a SMILES string.

As to `CNC(=O)c1cc(C#N)cc(C)c1NC(=O)c1cc(Br)nn1-c1ncccc1Cl` [Polymorph A, 3-bromo-1-(3-chloro-2-pyridinyl)-N-[4-cyano-2-methyl-6-[(methylamino)carbonyl]phenyl]-1H-pyrazole-5-carboxamide], the “Change of water content on exposure to variations in atmospheric humidity” value in series [1] is “does not gain or lose appreciable amounts of water”. Besides, the “Conversion to Polymorph B during long-term storage” value in series [2] is “does not typically convert to Polymorph B”. For the same molecule, in series [3], the Solubility in water entry is reported as “little solubility in water”.
As for `CNC(=O)c1cc(C#N)cc(C)c1NC(=O)c1cc(Br)nn1-c1ncccc1Cl` [Polymorph B, 3-bromo-1-(3-chloro-2-pyridinyl)-N-[4-cyano-2-methyl-6-[(methylamino)carbonyl]phenyl]-1H-pyrazole-5-carboxamide], in series [1], the “Change of water content on exposure to variations in atmospheric humidity” value was “changes significantly”.
